We go through 1 compound from patent US11129820B2, “Ferroportin-inhibitor salts” (Vifor (International) AG, priority 2017, dated 2021).

One assay has as its target T1, ferroportin (Fpn) (Mus musculus, UniProt Q9JHI9).
T1 construct: endogenous in cells; host or cells: J774 mouse macrophage cell line (DSMZ, Cat. ACC170), induced with 200 uM Fe(III)-NTA
T1 sequence (Q9JHI9 1-570): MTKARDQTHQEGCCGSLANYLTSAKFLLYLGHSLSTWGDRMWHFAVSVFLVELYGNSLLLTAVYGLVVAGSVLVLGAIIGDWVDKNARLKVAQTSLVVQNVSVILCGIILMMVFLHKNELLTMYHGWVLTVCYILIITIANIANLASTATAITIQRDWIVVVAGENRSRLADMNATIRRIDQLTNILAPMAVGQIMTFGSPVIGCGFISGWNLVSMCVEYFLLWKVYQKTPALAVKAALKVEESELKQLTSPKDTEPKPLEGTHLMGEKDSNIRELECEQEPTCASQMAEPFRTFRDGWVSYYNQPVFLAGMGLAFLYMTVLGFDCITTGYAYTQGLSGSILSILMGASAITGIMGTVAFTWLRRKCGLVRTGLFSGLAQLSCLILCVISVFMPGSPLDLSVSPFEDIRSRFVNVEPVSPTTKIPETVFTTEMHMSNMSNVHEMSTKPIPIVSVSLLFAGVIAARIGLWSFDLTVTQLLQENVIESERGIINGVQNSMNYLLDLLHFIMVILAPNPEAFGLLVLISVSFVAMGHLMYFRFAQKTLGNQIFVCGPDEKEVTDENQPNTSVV
In words: Ferroportin Ubiquitination and Degradation (J774, immunoprecipitation, Western blot). Type of assay: cell-based. Further details: key: +: comparable to hepcidin; −: no effect; +/−: intermediate effect. The settings on record: J774 cells, ca. 10-fold IC50 concentration, visual inspection of Western blots. Here is the method:
Exposure of cells expressing ferroportin (Fpn) to hepcidin is known to trigger ubiquitination and subsequent internalization and degradation of Fpn (Qiao, 2012). The potential of Fpn inhibitors to induce Fpn ubiquitination and degradation is investigated with an immunoprecipitation assay using the J774 mouse macrophage cell line which expresses Fpn upon treatment with iron.
Cells are incubated with synthetic human hepcidin (Bachem, Cat. H-5926) or Fpn inhibitor compounds for 10 min or 120 min. Cells are washed and lysed with ice-cold lysis buffer (Pierce, Life Technoligies, Cat. 87787) including 1×HALT protease inhibitor cocktail (Life technologies, Cat. 78429) and 10 mM iodoacetamide (Sigma, Cat. 16125) to stabilize ubiquitinated proteins. Immunoprecipitation is done using the Pierce Classic IP Kit (Life Technologies, Cat. 26146) following the manufacturer's protocol. Briefly, 2 mg protein in 1.25 ml IP lysis buffer is incubated by mixing for 1 h at 4° C. with control agarose beads to pre-clear the lysate and reduce nonspecific signal. Unbound lysate is then incubated overnight with 12 μg per reaction of the affinity purified anti-Fpn antibody F308 that was raised against a GST fusion protein of mouse Fpn amino acids 224-308. Immune complexes are captured by pipetting 14 μl settled Pierce Protein A/G Plus Agarose beads (Life Technologies, Cat. 20423) per reaction and the slurry is incubated for 1.5 h at 4° C. with gentle end-over-end mixing. The beads are washed and immune complexes are eluted directly with 75 μl SDS NuPAGE LDS sample buffer (Life Technologies, Cat. NP0007) containing DTT (Life Technologies, Cat. NP0009).
After immunoprecipitation samples are analyzed by Western blotting using a rabbit anti-mouse MTP1 antiserum (Alpha Diagnostic International, Cat. MTP11-A) and a mouse anti-mono- and polyubiquitinylated conjugates monoclonal antibody (Enzo Lifesciences, Cat. BML-PW8810) for detection of ferroportin and ubiquitin, respectively. Mouse monoclonal anti-rabbit IgG light chain (Abcam, Cat. ab99697) and anti-mouse IgG H&L (Abcam, Cat. ab6789) HRP conjugates are used as secondary antibodies.
For orientation: A western blot detects proteins with antibodies after separation by electrophoresis.

The subject of another assay is naïve WT C57BL/6 mice. In words: Hypoferremia in naïve mice. The format is in vivo, mouse. Conditions: injection in WT naïve mice, maximal effect at 3-4 hours post treatment. Here is the method:
Injection of synthetic hepcidin in wild-type (WT) naïve mice results in a reduction of serum iron levels (40-50% from the vehicle control) with a maximal effect at 3-4 hours post treatment (Rivera, 2005; FIG. 12A).
Female C57BL/6 mice (Janvier, France) at age of 9 weeks are fed a standard diet (Harlan Provimi Kliba 3436) and treated per os (p.o.) with compounds or the corresponding amount of vehicle at a volume of 10 ml/kg body weight. Fpn inhibitors are formulated in 0.5% methylcellulose/water or 20% cremophor EL/water and dosed p.o. in mice at 10, 30 or 100 mg/kg body weight. Three hours later, mice are pre-terminally anesthetized in isoflurane chambers and blood is collected by retro-orbital bleeding. Mice are sacrificed by cervical dislocation and spleens, livers and duodena were harvested and used for biomarker analysis. All experiments are conducted in compliance with the license approved by the responsible veterinarian authorities. Serum is isolated by centrifugation of blood into gel-containing microtainers and serum iron is determined by the MULTIGENT Iron assay (Abbott Diagnostics, 6K95). Eight mice per group are used and one-way ANOVA with Bonferroni's multiple comparison test is performed to analyze the statistical differences between the experimental groups.
Table 6 Efficacy of Fpn inhibitors tested in the naïve mouse hypoferremia model. Serum iron reduction induced by selected ferroportin inhibitors dosed p.o. in naïve WT C57BL/6 mice at 10, 30 and 100 mg/kg. Relative serum iron reduction at 3 h after dosing was calculated by subtracting the average of serum iron values of animals dosed with the Fpn inhibitor from that of vehicle-treated animals. The difference in average serum iron values between vehicle and compound treated groups was then divided by the average of serum iron of the vehicle control group and listed as percentage.

In the case of `CC[C@H](C)[C@@H]1NC(=O)[C@@H](NC(=O)[C@@H](NC(=O)[C@@H]2CCCN2C(=O)[C@H](Cc2ccccc2)NC(=O)[C@H](Cc2c[nH]cn2)NC(=O)[C@@H](NC(=O)[C@@H](N)CC(=O)O)[C@@H](C)O)[C@@H](C)CC)CSSC[C@@H](C(=O)N[C@@H](CCCCN)C(=O)N[C@H](C(=O)O)[C@@H](C)O)NC(=O)[C@@H]2CSSC[C@@H]3NC(=O)[C@@H]4CSSC[C@H](NC(=O)[C@H](Cc5ccccc5)NC1=O)C(=O)N[C@@H](CSSC[C@H](NC(=O)[C@H](CCCCN)NC(=O)[C@H](CO)NC(=O)[C@H](CCCNC(=N)N)NC(=O)[C@H](Cc1c[nH]cn1)NC3=O)C(=O)NCC(=O)N[C@@H](CCSC)C(=O)N2)C(=O)NCC(=O)N4` [hepcidin, reference compound], on ferroportin (Fpn), the “Fpn Degradation (120 min.)” value was “+” and the “Fpn Ubiquitination (10 min.)” value was “+”. Further, the “Reduction of serum iron levels from the vehicle control” value in the assay on naïve WT C57BL/6 mice was 40-50%.
